Assay results as given in the NIST ThermoML archive (doi:10.1021/je500513b).
Numbers after ± are expanded uncertainties.

Assay: mn = molality of the nth substance listed, in mol/kg
Details: for surface tension liquid-gas: Pendant drop shape; for electrical conductivity: 100 kPa, Liquid, Mettler Toledo inLab 710

CCCCCCCCCCCC[N+](C)(C)CCCCCC[N+](C)(C)CCCCCCCCCCCC.[Br-].[Br-] + O
Details	electrical conductivity [S/m]	surface tension liquid-gas [mN/m]
298.15 K, m1 = 0.0001	–	61.45 ± 2
298.15 K, m1 = 0.0002	–	53.1 ± 1
298.15 K, m1 = 0.0004	–	47.33 ± 0.7
298.15 K, m1 = 0.00056	0.0115 ± 0.0005	–
298.15 K, m1 = 0.00059	0.0123 ± 0.0005	–
298.15 K, m1 = 0.0006	–	42.35 ± 0.64
298.15 K, m1 = 0.00063	0.0132 ± 0.0004	–
298.15 K, m1 = 0.00067	0.0138 ± 0.0004	–
298.15 K, m1 = 0.0007	–	40.01 ± 0.57
298.15 K, m1 = 0.00071	0.0147 ± 0.0004	–
298.15 K, m1 = 0.00077	0.0159 ± 0.0004	–
298.15 K, m1 = 0.0008	–	38.21 ± 0.46
298.15 K, m1 = 0.00083	0.017 ± 0.0004	–
298.15 K, m1 = 0.00085	–	38.13 ± 0.38
298.15 K, m1 = 0.00087	0.0176 ± 0.0004	–
298.15 K, m1 = 0.0009	–	37.83 ± 0.38
298.15 K, m1 = 0.00091	0.0182 ± 0.0004	–
298.15 K, m1 = 0.00095	0.0188 ± 0.0003	–
298.15 K, m1 = 0.001	0.0194 ± 0.0003	37.53 ± 0.37
298.15 K, m1 = 0.00105	0.02 ± 0.0003	–
298.15 K, m1 = 0.0011	–	37.34 ± 0.37
298.15 K, m1 = 0.00111	0.0206 ± 0.0003	–
298.15 K, m1 = 0.00118	0.0212 ± 0.0003	–
298.15 K, m1 = 0.0012	–	37.28 ± 0.37
298.15 K, m1 = 0.00125	0.0219 ± 0.0003	–
298.15 K, m1 = 0.00133	0.0225 ± 0.0003	–
298.15 K, m1 = 0.00143	0.0231 ± 0.0003	–
298.15 K, m1 = 0.0015	–	37.38 ± 0.37
298.15 K, m1 = 0.00154	0.024 ± 0.0003	–
298.15 K, m1 = 0.00167	0.0249 ± 0.0003	–
298.15 K, m1 = 0.00182	0.0259 ± 0.0003	–
298.15 K, m1 = 0.002	0.0269 ± 0.0003	37.23 ± 0.37
303.15 K, m1 = 0.00057	0.0136 ± 0.0005	–
303.15 K, m1 = 0.00061	0.0143 ± 0.0004	–
303.15 K, m1 = 0.00065	0.0151 ± 0.0004	–
303.15 K, m1 = 0.00068	0.0158 ± 0.0005	–
303.15 K, m1 = 0.00071	0.0166 ± 0.0005	–
303.15 K, m1 = 0.00075	0.0173 ± 0.0004	–
303.15 K, m1 = 0.0008	0.0183 ± 0.0004	–
303.15 K, m1 = 0.00083	0.0189 ± 0.0004	–
303.15 K, m1 = 0.00087	0.0196 ± 0.0004	–
303.15 K, m1 = 0.00091	0.0202 ± 0.0004	–
303.15 K, m1 = 0.00095	0.0209 ± 0.0004	–
303.15 K, m1 = 0.001	0.0216 ± 0.0004	–
303.15 K, m1 = 0.00105	0.0223 ± 0.0003	–
303.15 K, m1 = 0.00111	0.023 ± 0.0003	–
303.15 K, m1 = 0.00118	0.0237 ± 0.0003	–
303.15 K, m1 = 0.00125	0.0244 ± 0.0003	–
303.15 K, m1 = 0.00133	0.0252 ± 0.0003	–
303.15 K, m1 = 0.00143	0.0261 ± 0.0003	–
303.15 K, m1 = 0.00154	0.027 ± 0.0003	–
303.15 K, m1 = 0.0016	0.0276 ± 0.0003	–
303.15 K, m1 = 0.00167	0.0281 ± 0.0003	–
303.15 K, m1 = 0.00174	0.0287 ± 0.0003	–
303.15 K, m1 = 0.00182	0.0293 ± 0.0003	–
303.15 K, m1 = 0.0019	0.03 ± 0.0003	–
303.15 K, m1 = 0.002	0.0307 ± 0.0003	–
308.15 K, m1 = 0.00065	0.0167 ± 0.0006	–
308.15 K, m1 = 0.00068	0.0175 ± 0.0005	–
308.15 K, m1 = 0.00071	0.0182 ± 0.0005	–
308.15 K, m1 = 0.00075	0.0193 ± 0.0005	–
308.15 K, m1 = 0.0008	0.0203 ± 0.0004	–
308.15 K, m1 = 0.00083	0.0209 ± 0.0005	–
308.15 K, m1 = 0.00087	0.0217 ± 0.0005	–
308.15 K, m1 = 0.00091	0.0225 ± 0.0004	–
308.15 K, m1 = 0.00095	0.0232 ± 0.0004	–
308.15 K, m1 = 0.001	0.024 ± 0.0004	–
308.15 K, m1 = 0.00105	0.0248 ± 0.0004	–
308.15 K, m1 = 0.00111	0.0257 ± 0.0004	–
308.15 K, m1 = 0.00118	0.0266 ± 0.0004	–
308.15 K, m1 = 0.00125	0.0275 ± 0.0004	–
308.15 K, m1 = 0.00133	0.0284 ± 0.0004	–
308.15 K, m1 = 0.00143	0.0294 ± 0.0004	–
308.15 K, m1 = 0.00154	0.0306 ± 0.0004	–
308.15 K, m1 = 0.0016	0.0312 ± 0.0004	–
308.15 K, m1 = 0.00167	0.0318 ± 0.0004	–
308.15 K, m1 = 0.00174	0.0325 ± 0.0004	–
308.15 K, m1 = 0.00182	0.0332 ± 0.0004	–
308.15 K, m1 = 0.0019	0.0339 ± 0.0004	–
308.15 K, m1 = 0.002	0.0346 ± 0.0004	–
313.15 K, m1 = 0.00057	0.0163 ± 0.0004	–
313.15 K, m1 = 0.00061	0.0171 ± 0.0005	–
313.15 K, m1 = 0.00065	0.0182 ± 0.0006	–
313.15 K, m1 = 0.00068	0.0191 ± 0.0007	–
313.15 K, m1 = 0.00071	0.02 ± 0.0005	–
313.15 K, m1 = 0.00075	0.021 ± 0.0005	–
313.15 K, m1 = 0.0008	0.0222 ± 0.0006	–
313.15 K, m1 = 0.00083	0.023 ± 0.0006	–
313.15 K, m1 = 0.00087	0.024 ± 0.0005	–
313.15 K, m1 = 0.00091	0.0248 ± 0.0005	–
313.15 K, m1 = 0.00095	0.0259 ± 0.0005	–
313.15 K, m1 = 0.001	0.0269 ± 0.0005	–
313.15 K, m1 = 0.00105	0.0278 ± 0.0004	–
313.15 K, m1 = 0.00111	0.0288 ± 0.0004	–
313.15 K, m1 = 0.00118	0.0299 ± 0.0004	–
313.15 K, m1 = 0.00125	0.0308 ± 0.0004	–
313.15 K, m1 = 0.00133	0.0321 ± 0.0004	–
313.15 K, m1 = 0.00143	0.0333 ± 0.0004	–
313.15 K, m1 = 0.00154	0.0347 ± 0.0004	–
313.15 K, m1 = 0.0016	0.0353 ± 0.0004	–
313.15 K, m1 = 0.00167	0.036 ± 0.0004	–
313.15 K, m1 = 0.00174	0.0368 ± 0.0004	–
313.15 K, m1 = 0.00182	0.0376 ± 0.0004	–
313.15 K, m1 = 0.0019	0.0384 ± 0.0004	–
313.15 K, m1 = 0.002	0.0392 ± 0.0005	–
318.15 K, m1 = 0.00057	0.0184 ± 0.0005	–
318.15 K, m1 = 0.00061	0.0193 ± 0.0005	–
318.15 K, m1 = 0.00065	0.0206 ± 0.0008	–
318.15 K, m1 = 0.00069	0.0222 ± 0.0007	–
318.15 K, m1 = 0.00074	0.0237 ± 0.0006	–
318.15 K, m1 = 0.0008	0.0254 ± 0.0006	–
318.15 K, m1 = 0.00085	0.0265 ± 0.0006	–
318.15 K, m1 = 0.00091	0.0281 ± 0.0006	–
318.15 K, m1 = 0.00095	0.0292 ± 0.0006	–
318.15 K, m1 = 0.001	0.0302 ± 0.0005	–
318.15 K, m1 = 0.00104	0.031 ± 0.0005	–
318.15 K, m1 = 0.00109	0.0318 ± 0.0005	–
318.15 K, m1 = 0.00114	0.0328 ± 0.0005	–
318.15 K, m1 = 0.00119	0.0337 ± 0.0005	–
318.15 K, m1 = 0.00125	0.0347 ± 0.0005	–
318.15 K, m1 = 0.00132	0.0358 ± 0.0005	–
318.15 K, m1 = 0.00139	0.0368 ± 0.0005	–
318.15 K, m1 = 0.00147	0.038 ± 0.0005	–
318.15 K, m1 = 0.00156	0.0393 ± 0.0005	–
318.15 K, m1 = 0.00167	0.0406 ± 0.0005	–
318.15 K, m1 = 0.00172	0.0413 ± 0.0005	–
318.15 K, m1 = 0.00179	0.042 ± 0.0005	–
318.15 K, m1 = 0.00185	0.0428 ± 0.0005	–
318.15 K, m1 = 0.00192	0.0437 ± 0.0005	–
318.15 K, m1 = 0.002	0.0446 ± 0.0005	–
323.15 K, m1 = 0.00065	0.022 ± 0.0008	–
323.15 K, m1 = 0.00069	0.0235 ± 0.0007	–
323.15 K, m1 = 0.00074	0.025 ± 0.0007	–
323.15 K, m1 = 0.0008	0.0271 ± 0.0007	–
323.15 K, m1 = 0.00085	0.0288 ± 0.0007	–
323.15 K, m1 = 0.00091	0.0305 ± 0.0007	–
323.15 K, m1 = 0.00095	0.0317 ± 0.0007	–
323.15 K, m1 = 0.001	0.0331 ± 0.0007	–
323.15 K, m1 = 0.00104	0.0343 ± 0.0006	–
323.15 K, m1 = 0.00109	0.0355 ± 0.0006	–
323.15 K, m1 = 0.00114	0.0367 ± 0.0006	–
323.15 K, m1 = 0.00119	0.038 ± 0.0006	–
323.15 K, m1 = 0.00125	0.0393 ± 0.0006	–
323.15 K, m1 = 0.00132	0.0406 ± 0.0005	–
323.15 K, m1 = 0.00139	0.0418 ± 0.0006	–
323.15 K, m1 = 0.00147	0.0433 ± 0.0005	–
323.15 K, m1 = 0.00156	0.0443 ± 0.0005	–
323.15 K, m1 = 0.00167	0.0455 ± 0.0005	–
323.15 K, m1 = 0.00172	0.0464 ± 0.0006	–
323.15 K, m1 = 0.00179	0.0473 ± 0.0006	–
323.15 K, m1 = 0.00185	0.0482 ± 0.0006	–
323.15 K, m1 = 0.00192	0.0491 ± 0.0006	–
323.15 K, m1 = 0.002	0.0501 ± 0.0006	–

O [water] + CCCCCCCCCCCCCC[N+](C)(C)CCCC[N+](C)(C)CCCCCCCCCCCCCC.[Br-].[Br-]
Details	surface tension liquid-gas [mN/m]
298.15 K, m2 = 0	71.98 ± 16
